The assay concerns P388 leukemia ip, CD2F1 mice, survival T/C. As to the kind of experiment: NCI In Vivo Anticancer Drug Screen. Data for tumor model P388 Leukemia (intraperitoneal) in CD2F1 (CDF1) mice. The conditions noted are these: endpoint: median survival time, higher = longer survival. Summed up:
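Mice carrying the transplanted tumor received test compound or vehicle. Survival was recorded in each group, and the value is the treated-group measurement divided by that of the vehicle-treated control group.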

Where [1] appears, read: dose: 100.0 mg/kg/injection, schedule: Q01DX001 (ip), vehicle: Klucel (hydroxypropylcellulose) (HPC).
Where [2] appears, read: dose: 50.0 mg/kg/injection, schedule: Q01DX009 (ip), vehicle: Klucel (hydroxypropylcellulose) (HPC).
Where [3] appears, read: dose: 50.0 mg/kg/injection, schedule: Q01DX005 (ip), vehicle: Klucel (hydroxypropylcellulose) (HPC).
Where [4] appears, read: dose: 100.0 mg/kg/injection, schedule: Q01DX005 (ip), vehicle: Klucel (hydroxypropylcellulose) (HPC).
[5] abbreviates: dose: 200.0 mg/kg/injection, schedule: Q01DX005 (ip), vehicle: Klucel (hydroxypropylcellulose) (HPC).
[6] abbreviates: dose: 100.0 mg/kg/injection, schedule: Q01DX009 (ip), vehicle: Klucel (hydroxypropylcellulose) (HPC).
[7] abbreviates: dose: 200.0 mg/kg/injection, schedule: Q01DX009 (ip), vehicle: Klucel (hydroxypropylcellulose) (HPC).
The mark [8] stands for this setting: dose: 50.0 mg/kg/injection, schedule: Q01DX005 (ip), vehicle: saline with Tween-80.
[9] abbreviates: dose: 100.0 mg/kg/injection, schedule: Q01DX005 (ip), vehicle: saline with Tween-80.
[10] abbreviates: dose: 200.0 mg/kg/injection, schedule: Q01DX005 (ip), vehicle: saline with Tween-80.
Setting [11] is: dose: 60.0 mg/kg/injection, schedule: Q01DX005 (ip), vehicle: saline with Tween-80.
Where [12] appears, read: dose: 120.0 mg/kg/injection, schedule: Q01DX005 (ip), vehicle: saline with Tween-80.
[13] abbreviates: dose: 100.0 mg/kg/injection, schedule: Q01DX001 (ip), vehicle: saline with Tween-80.

Structures are written as SMILES. “And” between values parts separate entries of the source, which are not always exact repeats. Equal entries are not always repeated. Toxic doses and inconclusive results are not listed.

In the case of `CC(C)Cc1nccs1.CC(C)Cc1nccs1.CC(C)Cc1nccs1.CC(C)Cc1nccs1.[Cl][Rh][Cl]`, the T/C was 108 % of control (dose: 25.0 mg/kg/injection, schedule: Q01DX001 (ip), vehicle: Klucel (hydroxypropylcellulose) (HPC)); 100 % of control (dose: 50.0 mg/kg/injection, schedule: Q01DX001 (ip), vehicle: Klucel (hydroxypropylcellulose) (HPC)); 112 % of control under setting [1].

Consider `CCCCCCCCCCCCOC(=O)c1ccc(OP(=O)(O)OCc2ccccc2)cc1`, for which the T/C was 104 % of control (dose: 12.5 mg/kg/injection, schedule: Q01DX009 (ip), vehicle: Klucel (hydroxypropylcellulose) (HPC)); 121 % of control (dose: 25.0 mg/kg/injection, schedule: Q01DX009 (ip), vehicle: Klucel (hydroxypropylcellulose) (HPC)); 103 % of control and 115 % of control under setting [2].

For `COC1=CC=C2CC(=C1)CCC1C2CCC2(C)C(=O)CCC12` (stereo not given), the T/C was 100 % of control under setting [3], 96 % of control under setting [4] and 91 % of control under setting [5].

As for `Cc1c2cc[n+](Cc3ccc(I)cc3)cc2c(C)c2c1[nH]c1ccccc12`, the T/C (dose: 11.75 mg/kg/injection, schedule: Q04DX002 (ip), vehicle: saline with Tween-80) is 112 % of control; the T/C (dose: 23.5 mg/kg/injection, schedule: Q04DX002 (ip), vehicle: saline with Tween-80) is 116 % of control; the T/C (dose: 47.0 mg/kg/injection, schedule: Q04DX002 (ip), vehicle: saline with Tween-80) is 124 % of control.

As to `C/C=C1/CN2CCC34c5ccccc5N(C)C23C2CC1C4(C(=O)OC)C(OC(C)=O)O2` (stereo not given), the T/C (dose: 9.25 mg/kg/injection, schedule: Q01DX005 (ip), vehicle: saline + Tween-80 + alcohol) was 96 % of control; the T/C (dose: 18.5 mg/kg/injection, schedule: Q01DX005 (ip), vehicle: saline + Tween-80 + alcohol) is 106 % of control; the T/C (dose: 37.0 mg/kg/injection, schedule: Q01DX005 (ip), vehicle: saline + Tween-80 + alcohol) was 112 % of control; the T/C (dose: 74.0 mg/kg/injection, schedule: Q01DX005 (ip), vehicle: saline + Tween-80 + alcohol) was 100 % of control.

On to `C=CC(=C)C1(O)c2ccccc2C(=O)N1C` (stereo not given), for which the T/C is, setting by setting: (dose: 60.0 mg/kg/injection, schedule: Q01DX005 (ip), vehicle: Klucel (hydroxypropylcellulose) (HPC)) 106 % of control; (dose: 120.0 mg/kg/injection, schedule: Q01DX005 (ip), vehicle: Klucel (hydroxypropylcellulose) (HPC)) 109 % of control.

Turning to `CCCCCCNC(=S)Nc1ccc2cc(C)ccc2n1`, the T/C is, setting by setting: under setting [2], 91 % of control; under setting [6], 91 % of control; under setting [7], 94 % of control.

As to `CCOP(=O)(CC(=O)NC(C(N)=O)C(C)C)OCC` (stereo not given), the T/C under setting [8] was 101 % of control, the T/C under setting [9] was 104 % of control and the T/C under setting [10] is 105 % of control.

In the case of `O=c1oc2ccc(Br)cc2cc1-n1nnc2cc([N+](=O)[O-])ccc21`, the T/C under setting [8] is 90 % of control, the T/C under setting [9] is 89 % of control and the T/C under setting [10] was 89 % of control.

As for `COc1cc(C(=O)NC2CCc3cc(OC)c(OC)c(OC)c3-c3ccc(OC)c(=O)cc32)cc(OC)c1OC` (stereo not given), the T/C (dose: 1.25 mg/kg/injection, schedule: Q01DX009 (ip), vehicle: Klucel (hydroxypropylcellulose) (HPC)) was 119 % of control; the T/C (dose: 2.5 mg/kg/injection, schedule: Q01DX009 (ip), vehicle: Klucel (hydroxypropylcellulose) (HPC)) was 124 % of control; the T/C (dose: 10.0 mg/kg/injection, schedule: Q01DX009 (ip), vehicle: Klucel (hydroxypropylcellulose) (HPC)) was 152 % of control and 154 % of control; the T/C (dose: 20.0 mg/kg/injection, schedule: Q01DX009 (ip), vehicle: Klucel (hydroxypropylcellulose) (HPC)) was 155 % of control and 163 % of control.

For the compound `O=C(Nc1ccccc1)Sc1ccc(Cl)cc1`, the T/C is 115 % of control (dose: 25.0 mg/kg/injection, schedule: Q01DX005 (ip), vehicle: saline with Tween-80); 121 % of control under setting [8]; 115 % of control and 123 % of control under setting [9]; 124 % of control under setting [10].

Regarding `CC12CC(c3ccccc3N1)C1CC2(C)Nc2ccccc21`, the T/C was 95 % of control under setting [3], 100 % of control under setting [4] and 102 % of control under setting [5].

Take `COc1ccc(/C=N\S(=O)(=O)c2ccc(OC)cc2)cc1`: the T/C under setting [2] is 111 % of control, the T/C under setting [6] was 102 % of control and the T/C under setting [7] was 95 % of control.

For `C=CC1CCCC[N+]1(C)Cc1ccccc1` (stereo not given), the T/C is 94 % of control (dose: 6.25 mg/kg/injection, schedule: Q01DX005 (ip), vehicle: saline) and 98 % of control (dose: 12.5 mg/kg/injection, schedule: Q01DX005 (ip), vehicle: saline).

Take `CSc1nc(NC2OCC(O)C(O)C2O)c(C=O)c(=O)n1C` (stereo not given): the T/C is 96 % of control under setting [11] and 97 % of control under setting [12].

On to `O=C1C(=Cc2ccc(O)cc2)C(=O)c2ccccc21`, for which the T/C is 97 % of control (dose: 100.0 mg/kg/injection, schedule: Q04DX002 (ip), vehicle: saline); 99 % of control (dose: 200.0 mg/kg/injection, schedule: Q04DX002 (ip), vehicle: saline); 106 % of control (dose: 400.0 mg/kg/injection, schedule: Q04DX002 (ip), vehicle: saline).

As for `COC1=C(OC)C(=O)C2=C(OCCO2)C1=O`, the T/C (dose: 25.0 mg/kg/injection, schedule: Q01DX001 (ip), vehicle: saline with Tween-80) is 109 % of control; the T/C (dose: 50.0 mg/kg/injection, schedule: Q01DX001 (ip), vehicle: saline with Tween-80) is 106 % of control; the T/C under setting [13] is 107 % of control.

As for `Nc1ncc(CCCCc2ccccc2)c(=O)[nH]1`, the T/C by setting is: under setting [13], 100 % of control; (dose: 200.0 mg/kg/injection, schedule: Q01DX001 (ip), vehicle: saline with Tween-80) 104 % of control; (dose: 400.0 mg/kg/injection, schedule: Q01DX001 (ip), vehicle: saline with Tween-80) 100 % of control.

On to `O=[N+]([O-])c1cc([N+](=O)[O-])c(N2CC2)cc1C1=NCCO1`, for which the T/C by setting is: under setting [2], 98 % of control; under setting [6], 110 % of control.

On to `CC(=O)OCC1OC(n2cnc3c(=S)nc(N)[nH]c32)C(OC(C)=O)C1OC(C)=O` (stereo not given), for which the T/C was 118 % of control (dose: 12.5 mg/kg/injection, schedule: Q04DX003 (ip), vehicle: saline with Tween-80); 122 % of control (dose: 25.0 mg/kg/injection, schedule: Q01DX009 (ip), vehicle: saline with Tween-80); 113 % of control (dose: 50.0 mg/kg/injection, schedule: Q01DX009 (ip), vehicle: saline with Tween-80); 100 % of control (dose: 300.0 mg/kg/injection, schedule: Q04DX003 (ip), vehicle: saline with Tween-80).

In the case of `O=c1[nH]c2c(=O)[nH][nH]c(=O)c2[nH]c1=O`, the T/C reads like this: (dose: 15.0 mg/kg/injection, schedule: Q01DX005 (ip), vehicle: saline with Tween-80) 103 % of control; (dose: 30.0 mg/kg/injection, schedule: Q01DX005 (ip), vehicle: saline with Tween-80) 100 % of control; under setting [11], 99 % of control and 105 % of control.

On to `CC(C)(S)CN`, for which the T/C is 104 % of control (dose: 100.0 mg/kg/injection, schedule: Q01DX001 (ip), vehicle: saline); 108 % of control (dose: 200.0 mg/kg/injection, schedule: Q01DX001 (ip), vehicle: saline); 103 % of control (dose: 400.0 mg/kg/injection, schedule: Q01DX001 (ip), vehicle: saline).

Regarding `CN1c2ccc(Br)c[c]2[Sn]([CH3])([CH3])[c]2cc(Br)ccc21`, the T/C was 99 % of control under setting [11]; 100 % of control under setting [12]; 104 % of control (dose: 240.0 mg/kg/injection, schedule: Q01DX005 (ip), vehicle: saline with Tween-80).

`COc1ccccc1N1C(=S)N(c2cccc(Cl)c2Cl)C(=O)C(N=Nc2ccc(Br)cc2)C1O` (stereo not given): the T/C reads like this: under setting [1], 100 % of control; (dose: 200.0 mg/kg/injection, schedule: Q01DX001 (ip), vehicle: Klucel (hydroxypropylcellulose) (HPC)) 99 % of control; (dose: 400.0 mg/kg/injection, schedule: Q01DX001 (ip), vehicle: Klucel (hydroxypropylcellulose) (HPC)) 96 % of control.

Regarding `CC(C)=NNc1nc(N(C)C)nc(N(C)C)n1`, the T/C was 105 % of control (dose: 100.0 mg/kg/injection, schedule: Q04DX003 (ip), vehicle: saline with Tween-80); 105 % of control (dose: 200.0 mg/kg/injection, schedule: Q04DX003 (ip), vehicle: saline with Tween-80); 103 % of control (dose: 400.0 mg/kg/injection, schedule: Q04DX003 (ip), vehicle: saline with Tween-80).

The record behind these values is PubChem BioAssay AID330 (DTP/NCI, 2004).
